Test results taken from patent US20080031957A1, “Pulmonary delivery of 1alpha,25-dihydroxyvitamin D3 and co-administration of parathyroid hormone or calcitonin” (priority 2006, published 2008).

What was measured:
[1] = Tissue distribution of 1α,25-dihydroxyvitamin D3 after intratracheal (pulmonary) delivery; format: in vivo, Sprague Dawley rats
Source text: Sprague Dawley and Brown Norway male rats aged 6-7 weeks were obtained from Harlan Sprague-Dawley (Madison, Wis.) and housed in shoebox cages. Animals were provided a purified rodent diet prepared in-house containing 0.47% calcium and 0.3% phosphorus, and water ad libitum. The diet was supplemented with 1.6 IU vitamin D3/g diet. […] Formulation A was an aqueous solution containing 30% propylene glycol and 5% ethanol at pH 7.0. Formulation B was also an aqueous solution further containing 0.4% TWEEN polysorbate 20 [1 mL of solution contains: 4 mg Tween Polysorbate 20, 1.5 mg sodium chloride, 10 mg sodium ascorbate, 7.6 mg sodium phosphate (dibasic), 1.8 mg sodium phosphate (monodibasic) and 1.1 mg disodium […]], pH 7.0. Intratracheal delivery of 1α,25-dihydroxyvitamin D3. 5 μCi of 1α,25-dihydroxyvitamin D3 was delivered intratracheally to anesthetized (isoflurane) Sprague Dawley rats by using the MicroSprayerTM Model 1C following the manufacturer's protocol (PennCentury, Philadelphia, Pa). The device included a stainless steel tube measuring 0.64 mm in diameter attached to a high-pressure syringe (Model FMJ-250, PennCentury). An atomizer at the very tip of the tube generated the aerosol plume. The MicroSprayerTM was inserted deep into the trachea allowing delivery of aerosolized compounds into the lungs. 1α,25-dihydroxyvitamin D3 was administered in either 100 μL (Formulation A and Formulation B) or 200 μL (Formulation A) dose volumes. As a quench control, a group of animals were dosed with either Formulation A or Formulation B. Tissue analysis. Using a duration of 4 hours and a duration of 10 minutes after administering the dose, the animals were anesthetized with isoflurane and blood was collected from the heart. The trachea, lungs and stomach were removed, dehydrated in alcohol and pulverized. Samples weighing 20-100 mg were placed in 1 mL Solvable (Packard BioScience B. V., The Netherlands) and incubated at 60° C. overnight. Next, 10 mL of Optima Gold (Perkin Elmer, Boston, Mass.) was added to the samples, and radioactivity was measured using a liquid scintillation analyzer (TRI-CARB 2100 TR, Packard). To determine the presence of 1α,25-dihydroxyvitamin D3 in the blood, 200-300 μL of serum in 10 mL Optima Gold was used for scintillation counting.

serum calcium levels = assay: Effect of aerosolized 1α,25-dihydroxyvitamin D3 on serum calcium levels; format: in vivo, Brown Norway rats; conditions: Formulation A, intratracheal 200 μL doses on Day 0 and Day 2, blood 24 h after last dose
Source text: Sprague Dawley and Brown Norway male rats aged 6-7 weeks were obtained from Harlan Sprague-Dawley (Madison, Wis.) and housed in shoebox cages. Animals were provided a purified rodent diet prepared in-house containing 0.47% calcium and 0.3% phosphorus, and water ad libitum. The diet was supplemented with 1.6 IU vitamin D3/g diet. […] Formulation A was an aqueous solution containing 30% propylene glycol and 5% ethanol at pH 7.0. Formulation B was also an aqueous solution further containing 0.4% TWEEN polysorbate 20 [1 mL of solution contains: 4 mg Tween Polysorbate 20, 1.5 mg sodium chloride, 10 mg sodium ascorbate, 7.6 mg sodium phosphate (dibasic), 1.8 mg sodium phosphate (monodibasic) and 1.1 mg disodium […]], pH 7.0. Effectiveness of Aerosol Delivery of Vitamin D to Pulmonary Tree. 1α,25-dihydroxyvitamin D3 effect on serum calcium levels in Brown Norway rats was determined. Delivery of 1α,25-dihydroxyvitamin D3 (i.e., in vivo activity) was measured to determine the effect of aerosolized 1α,25-dihydroxyvitamin D3 treatment on serum calcium levels. Formulation A containing 1α,25-dihydroxyvitamin D3 was intra-tracheally delivered in 200 μL doses on Day 0 (Day 0 was the first day of treatment) and Day 2. […] Calcium levels were determined by atomic absorption spectroscopy of the serum diluted 0.1% lanthum chloride using a Perkin Elmer Model 3110.

[2] = Formulation A, 100 μL dose, after 10 minutes
[3] = Formulation B, 100 μL dose, after 10 minutes

- detected 1α,25-dihydroxyvitamin D3 found in the serum [1, 2]: 53%
- detected 1α,25-dihydroxyvitamin D3 found in the stomach [1, 2]: ~1%
- detected 1α,25-dihydroxyvitamin D3 found in the trachea and lungs [1, 2]: 46%
- detected 1α,25-dihydroxyvitamin D3 found in the serum ([1]; Formulation A, after 4 hours): 60%
- detected 1α,25-dihydroxyvitamin D3 found in the stomach ([1]; Formulation A, after 4 hours): 36%
- detected 1α,25-dihydroxyvitamin D3 found in the trachea and lungs ([1]; Formulation A, after 4 hours): Less than 5%
- detected 1α,25-dihydroxyvitamin D3 found in the serum [1, 3]: 51%
- detected 1α,25-dihydroxyvitamin D3 found in the stomach [1, 3]: less than 4%
- detected 1α,25-dihydroxyvitamin D3 found in the trachea and lungs [1, 3]: 33%
- 1α,25-dihydroxyvitamin D3 detected in serum (% of total) ([1]; Formulation B, after 4 hours): 56%
- 1α,25-dihydroxyvitamin D3 detected in stomach (% of total) ([1]; Formulation B, after 4 hours): 35%
SMILES: C=C1/C(=C\C=C2/CCC[C@]3(C)[C@@H]([C@H](C)CCCC(C)(C)O)CC[C@@H]23)C[C@@H](O)C[C@@H]1O [1α,25-dihydroxyvitamin D3]
- increase of serum calcium levels (serum calcium levels; 1 μg/kgBW): 2.8 mg/dL
- increase of serum calcium levels (serum calcium levels; 10 μg/kgBW): 4 mg/dL
